Test [1] has as its system RS4;11 cells. The test can be described thus: Cell viability assay, MTS, 48 h, RS4;11. Format: cell-based. Particulars: 48 hours, read-out: IC50 (48 hours) RS4;11. The method, then: (§1) Acute lymphoblastic leukemia cells (MOLT-4 and RS4; 11) or small cell lung cancer (NCI-H146 or simply H146) were incubated with increasing concentrations of Bcl-xL degraders for 48 h. Cell viability was measured by tetrazolium-based MTS assay.

For test [2], the system named is MOLT-4 cells. The test can be described thus: Cell viability assay, MTS, 48 h, MOLT-4. It is filed as cell-based. Particulars: 48 hours, read-out: IC50 (48 hours) MOLT-4. The method, then: as §1

pIC50: −log10 of the molar value. Read-outs that look alike come from different tables or passages of the source. Where only a bound is given, the exact number is not on record here.

Take `Cc1ncsc1-c1ccc([C@H](C)NC(=O)[C@@H]2C[C@@H](O)CN2C(=O)[C@@H](NC(=O)CCCCCCCCCC(=O)N2CCC(c3ccc(Cl)cc3)=C(CN3CCN(c4ccc(C(=O)NS(=O)(=O)c5ccc(N[C@H](CCN6CCOCC6)CSc6ccccc6)c(S(=O)(=O)C(F)(F)F)c5)cc4)CC3)C2)C(C)(C)C)cc1` [compound 84, (2S,4R)-1-((S)-2-(11-(4-(4-chlorophenyl)-5-((4-(4-(((4-(((R)-4-morpholino-1-(phenylthio)butan-2-yl)amino)-3-((trifluoromethyl)sulfonyl)phenyl)sulfonyl)carbamoyl)phenyl)piperazin-1-yl)methyl)-3,6-dihydropyridin-1(2H)-yl)-11-oxoundecanamido)-3,3-dimethylbutanoyl)-4-hydroxy-N—((S)-1-(4-(4-methylthiazol-5-yl)phenyl)ethyl)pyrrolidine-2-carboxamide]: the pIC50 is 6.30 to 6.82 in test [1] (Homo sapiens, RS4-11, 48 h) and 6.30 to 6.82 in test [2] (Homo sapiens, MOLT-4, 48 h).

On to `Cc1ncsc1-c1ccc([C@H](C)NC(=O)[C@@H]2C[C@@H](O)CN2C(=O)[C@@H](NC(=O)CCCCCCC(=O)N[C@H]2CCCN(CC3(C)CCC(c4ccc(Cl)cc4)=C(CN4CCN(c5ccc(C(=O)NS(=O)(=O)c6ccc(N[C@H](CCN7CCOCC7)CSc7ccccc7)c(S(=O)(=O)C(F)(F)F)c6)cc5)CC4)C3)C2)C(C)(C)C)cc1` (stereo partly drawn) [degrader #47, N1-((3S)-1-((4′-chloro-4-methyl-6-((4-(4-(((4-(((R)-4-morpholino-1-(phenylthio)butan-2-yl)amino)-3-((trifluoromethyl)sulfonyl)phenyl)sulfonyl)carbamoyl)phenyl)piperazin-1-yl)methyl)-2,3,4,5-tetrahydro-[1,1′-biphenyl]-4-yl)methyl)piperidin-3-yl)-N8-((S)-1-((2S,4R)-4-hydroxy-2-(((S)-1-(4-(4-methylthiazol-5-yl)phenyl)ethyl)carbamoyl)pyrrolidin-1-yl)-3,3-dimethyl-1-oxobutan-2-yl)octanediamide], for which the pIC50 was 6.82 to 7.30 in test [1] (Homo sapiens, RS4-11, 48 h) and 6.82 to 7.30 in test [2] (Homo sapiens, MOLT-4, 48 h).

As for “(2S,4R)-1-((S)-2-(10-(4-(4-chlorophenyl)-5-((4-(4-(((4-(((R)-4-morpholino-1-(phenylthio)butan-2-yl)amino)-3-((trifluoromethyl)sulfonyl)phenyl)sulfonyl)carbamoyl)phenyl)piperazin-1-yl)methyl)-3,6-dihydropyridin-1(2H)-yl)-10-oxodecanamido)-3,3-dimethylbutanoyl)-4-hydroxy-N—((S)-1-(4-(4-methylthiazol-5-yl)phenyl)ethyl)pyrrolidine-2-carboxamide [Example 5]”, the pIC50 in test [1] and in test [2] was > 7.30 each time.

On to `Cc1ncsc1-c1ccc([C@H](C)NC(=O)[C@@H]2C[C@@H](O)CN2C(=O)[C@@H](NC(=O)CCCCC(=O)N2CCN(CC3(C)CCC(c4ccc(Cl)cc4)=C(CN4CCN(c5ccc(C(=O)NS(=O)(=O)c6ccc(N[C@H](CCN7CCOCC7)CSc7ccccc7)c(S(=O)(=O)C(F)(F)F)c6)cc5)CC4)C3)CC2)C(C)(C)C)cc1` (stereo partly drawn) [degrader #15, (2S,4R)-1-((2S)-2-(6-(4-((4′-chloro-4-methyl-6-((4-(4-(((4-(((R)-4-morpholino-1-(phenylthio)butan-2-yl)amino)-3-((trifluoromethyl)sulfonyl)phenyl)sulfonyl)carbamoyl)phenyl)piperazin-1-yl)methyl)-2,3,4,5-tetrahydro-[1,1′-biphenyl]-4-yl)methyl)piperazin-1-yl)-6-oxohexanamido)-3,3-dimethylbutanoyl)-4-hydroxy-N—((S)-1-(4-(4-methylthiazol-5-yl)phenyl)ethyl)pyrrolidine-2-carboxamide], for which the pIC50 in test [1] (Homo sapiens, RS4-11, 48 h) is 6.82 to 7.30; in test [2] (Homo sapiens, MOLT-4, 48 h) it was 6.82 to 7.30.

In the case of `Cc1ncsc1-c1ccc([C@H](C)NC(=O)[C@@H]2C[C@@H](O)CN2C(=O)[C@@H](NC(=O)CCC(=O)N2CCC(c3ccc(Cl)cc3)=C(CN3CCN(c4ccc(C(=O)NS(=O)(=O)c5ccc(N[C@H](CCN6CCOCC6)CSc6ccccc6)c(S(=O)(=O)C(F)(F)F)c5)cc4)CC3)C2)C(C)(C)C)cc1` [compound 79, (2S,4R)-1-((S)-2-(4-(4-(4-chlorophenyl)-5-((4-(4-(((4-(((R)-4-morpholino-1-(phenylthio)butan-2-yl)amino)-3-((trifluoromethyl)sulfonyl)phenyl)sulfonyl)carbamoyl)phenyl)piperazin-1-yl)methyl)-3,6-dihydropyridin-1(2H)-yl)-4-oxobutanamido)-3,3-dimethylbutanoyl)-4-hydroxy-N—((S)-1-(4-(4-methylthiazol-5-yl)phenyl)ethyl)pyrrolidine-2-carboxamide], the pIC50 was < 6.30 in test [1] (Homo sapiens, RS4-11, 48 h) and < 6.30 in test [2] (Homo sapiens, MOLT-4, 48 h).

Take `CC1(CNC(=O)COCCOCCOCCNc2cccc3c2C(=O)N(C2CCC(=O)NC2=O)C3=O)CCC(c2ccc(Cl)cc2)=C(CN2CCN(c3ccc(C(=O)NS(=O)(=O)c4ccc(N[C@H](CCN5CCOCC5)CSc5ccccc5)c(S(=O)(=O)C(F)(F)F)c4)cc3)CC2)C1` (stereo partly drawn) [compound 78, 4-(4-((4′-chloro-4-(13-((2-(2,6-dioxopiperidin-3-yl)-1,3-dioxoisoindolin-4-yl)amino)-3-oxo-5,8,11-trioxa-2-azatridecyl)-4-methyl-3,4,5,6-tetrahydro-[1,1′-biphenyl]-2-yl)methyl)piperazin-1-yl)-N-((4-(((R)-4-morpholino-1-(phenylthio)butan-2-yl)amino)-3-((trifluoromethyl)sulfonyl)phenyl)sulfonyl)benzamide]: the negative logarithm of the IC50 (pIC50) in test [1] (Homo sapiens, RS4-11, 48 h) was > 7.30; in test [2] (Homo sapiens, MOLT-4, 48 h), > 7.30.

`CC1(CNC(=O)CCCCCCCCCCNc2cccc3c2C(=O)N(C2CCC(=O)NC2=O)C3=O)CCC(c2ccc(Cl)cc2)=C(CN2CCN(c3ccc(C(=O)NS(=O)(=O)c4ccc(N[C@H](CCN5CCOCC5)CSc5ccccc5)c(S(=O)(=O)C(F)(F)F)c4)cc3)CC2)C1` (stereo partly drawn) [compound 75, 4-(4-((4′-chloro-4-((11-((2-(2,6-dioxopiperidin-3-yl)-1,3-dioxoisoindolin-4-yl)amino)undecanamido)methyl)-4-methyl-3,4,5,6-tetrahydro-[1,1′-biphenyl]-2-yl)methyl)piperazin-1-yl)-N-((4-(((R)-4-morpholino-1-(phenylthio)butan-2-yl)amino)-3-((trifluoromethyl)sulfonyl)phenyl)sulfonyl)benzamide]: the pIC50 in test [1] (Homo sapiens, RS4-11, 48 h) is 6.30 to 6.82; in test [2] (Homo sapiens, MOLT-4, 48 h), 6.82 to 7.30.

For `Cc1ncsc1-c1ccc([C@H](C)NC(=O)[C@@H]2C[C@@H](O)CN2C(=O)[C@@H](NC(=O)CCCC(=O)N2CCN(CCN(C)CC3(C)CCC(c4ccc(Cl)cc4)=C(CN4CCN(c5ccc(C(=O)NS(=O)(=O)c6ccc(N[C@H](CCN7CCOCC7)CSc7ccccc7)c(S(=O)(=O)C(F)(F)F)c6)cc5)CC4)C3)CC2)C(C)(C)C)cc1` (stereo partly drawn) [compound 57], the pIC50 in test [1] (Homo sapiens, RS4-11, 48 h) was 6.30 to 6.82; in test [2] (Homo sapiens, MOLT-4, 48 h), 6.30 to 6.82.

Take `Cc1ncsc1-c1ccc([C@H](C)NC(=O)[C@@H]2C[C@@H](O)CN2C(=O)[C@@H](NC(=O)CCCCC(=O)N2CCN(CCN(C)CC3(C)CCC(c4ccc(Cl)cc4)=C(CN4CCN(c5ccc(C(=O)NS(=O)(=O)c6ccc(N[C@H](CCN7CCOCC7)CSc7ccccc7)c(S(=O)(=O)C(F)(F)F)c6)cc5)CC4)C3)CC2)C(C)(C)C)cc1` (stereo partly drawn) [compound 58]: the pIC50 in test [1] (Homo sapiens, RS4-11, 48 h) is 6.82 to 7.30; in test [2] (Homo sapiens, MOLT-4, 48 h), 6.82 to 7.30.

For orientation: pIC50 means the negative decadic logarithm of the IC50, by convention in mol/L.

For the origin of these results see US20220169628A1 (University of Florida Research Foundation, Incorporated, priority 2019, published 2022).
